Data from PMC11761228, “Cinnamic Acid Compounds (p-Coumaric, Ferulic, and p-Methoxycinnamic Acid) as Effective Antibacterial Agents Against Colistin-Resistant Acinetobacter baumannii” (Antibiotics, 2025).
Values after ≈ are worked out from the molar mass of the structure shown. Where two headings read alike, the source gives them in different places.

Tests used:
COLR-Ab4 isolate = experiment: Cytoplasmic membrane permeability assay (A260 of supernatant); type: cell-based, Acinetobacter baumannii; conditions: 3 h
Procedure: A cell membrane permeability assay was carried out in accordance with the methods described by Köse (2023). […] The bacteria were firstly incubated in MHB at 35 ± 2 °C overnight. Subsequently, the bacterial culture was centrifuged at 4000× g at 15 min, after which the pellet was washed twice with PBS. […] A suspension containing PBS and bacteria was used as a control. All samples were incubated at 35 ± 2 °C for 3 h, centrifuged at 13,400× g for 15 min, and the supernatant was harvested. The absorbance (A)260 of the supernatant was quantified using a UV-Vis spectrophotometer (Agilent Technologies, Santa Clara, CA, USA) to determine the amount of nucleic acid released from the cytoplasm. Each experiment was repeated three times.

Vero cells = conditions: cited from earlier work; for IC50 (cytotoxic effects): after 48 h, ref 70 (Sevimli-Gur and Yesil-Celiktas); for IC50: read-out: IC50 (cytotoxicity), 24 h of incubation, 5 mM maximum tested dose, ref 69 (Saenglee et al.)
COLR-Ab isolates = experiment: Checkerboard synergy test with COL; type: cell-based, Acinetobacter baumannii
Procedure: The checkerboard synergy test, based on microdilution, was carried out to investigate the combined activity of antibiotic and cinnamic acid derivatives. The effectiveness of the two antimicrobial drugs in combination was evaluated using a 96-well microplate for each strain. The medium employed was CAMHB. […] COL was added vertically, and cinnamic acids was added horizontally to the wells. The bacterial suspension was prepared to 0.5 McFarland standard density, and the final bacterial concentration was adjusted to 5 × 10^5 CFU/mL. In total, 10 µL of bacterial inoculum was added to each well. Bacterial growth control (CAMHB + bacteria) and medium sterility control (CAMHB) were also examined for each plate. The plates were incubated at 35 ± 2 °C for 18–24 h. Each experiment was conducted in triplicate.
The fractional inhibition concentrations (FIC) of all antimicrobial agents were calculated for the evaluation of the results in accordance with the following formulae:FICA = (MIC of A in combination/MIC of A alone)FICB = (MIC of B in combination/MIC of B alone)FICindex(FICI) = FICA + FICB
FICI ≤ 0.5 was considered to indicate synergism, […] ≤ 4 was considered to indicate indifference, and FICI > 4 was considered to indicate antagonism. In the formulae, the letter “A” is used to represent COL, while “B” is used to represent one of the compounds, p-CA, FA, and p-MCA.

A. baumannii strains = conditions: three A. baumannii isolates; cited from earlier work
[1] = system: biofilm production of A. baumannii isolates; set-up: method as in ref 51 (Mumtaz et al., 2023); conditions: ref 51 (Mumtaz et al., 2023); cited from earlier work
A. baumannii isolates = conditions: various A. baumannii isolates; ref 28 (Ibitoye and Ajiboye, 2019); cited from earlier work
[2] = system: HUVEC-originated ECV304 cells; conditions: ref 72 (Kong et al.); cited from earlier work
E. coli = conditions: cited from earlier work
293T cells = conditions: 24 h, tested range 0.78–200 μg/mL
Streptococcus pneumoniae = system: Streptococcus pneumoniae; set-up: method as in ref 35 (Lou et al., 2012); conditions: ref 35 (Lou et al., 2012); cited from earlier work
S. aureus = conditions: cited from earlier work
Bacillus subtilis = conditions: cited from earlier work
Shigella dysenteriae = conditions: ref 35 (Lou et al., 2012); cited from earlier work
Salmonella typhimurium = system: Salmonella typhimurium; set-up: method as in ref 35 (Lou et al., 2012); conditions: ref 35 (Lou et al., 2012); cited from earlier work
Salmonella enteritidis = system: Salmonella enteritidis; set-up: method as in ref 29 (Nakazono et al., 2006); conditions: ref 29 (Nakazono et al., 2006); cited from earlier work
Micrococcus luteus = system: Micrococcus luteus; set-up: method as in ref 29 (Nakazono et al., 2006); conditions: ref 29 (Nakazono et al., 2006); cited from earlier work

SMILES	Increase in absorbance values at 260 nm vs control (COLR-Ab4 isolate; COLR-Ab4, MIC concentration) [fold]	Increase in absorbance values at 260 nm vs control (COLR-Ab4 isolate; COLR-Ab4, MIC/2 concentration) [fold]	Increase in absorbance values at 260 nm vs control (COLR-Ab4 isolate; COLR-Ab4, MIC/4 concentration)	IC50 (cytotoxic effects) (Vero cells) [µg/mL]	IC50 (Vero cells) [mM]	Interpretation of FICI for COL combined with the compound (COLR-Ab isolates; COLR-Ab1)	Mean FICI for COL combined with the compound (COLR-Ab isolates; COLR-Ab1)	Interpretation of FICI for COL combined with the compound (COLR-Ab isolates; COLR-Ab2)	Mean FICI for COL combined with the compound (COLR-Ab isolates; COLR-Ab2)	Interpretation of FICI for COL combined with the compound (COLR-Ab isolates; COLR-Ab3)	Mean FICI for COL combined with the compound (COLR-Ab isolates; COLR-Ab3)	Interpretation of FICI for COL combined with the compound (COLR-Ab isolates; COLR-Ab4)	Mean FICI for COL combined with the compound (COLR-Ab isolates; COLR-Ab4)	Interpretation of FICI for COL combined with the compound (COLR-Ab isolates; COLR-Ab5)	Mean FICI for COL combined with the compound (COLR-Ab isolates; COLR-Ab5)	other results
COc1cc(/C=C/C(=O)O)ccc1O [FA, ferulic acid]	1.66	1.52	1.14 fold	134 ± 0.8 (≈ 690 µM)	> 5	S (synergistic effect)	0.15	S (synergistic effect)	0.15	S (synergistic effect)	0.15	I (indifferent effect)	0.51	S (synergistic effect)	0.12	MIC (A. baumannii strains): 12.5 µg/mL (≈ 64.4 µM); Inhibition of biofilm production [1]: 49–69%; Combination effect with quinolone-based antibiotics in words (A. baumannii isolates): synergistic effect
O=C(O)/C=C/c1ccc(O)cc1 [p-CA, p-coumaric acid]	1.9	1.71	1.19 fold	163 ± 0.3 (≈ 993 µM)	> 5	S (synergistic effect)	0.16	S (synergistic effect)	0.19	S (synergistic effect)	0.16	S (synergistic effect)	0.15	S (synergistic effect)	0.28	Concentration shown to induce cytotoxicity [2]: 5000 µM; Concentrations with no significant effects on the cell viability [2]: ≤ 2500 µM; MIC (E. coli; ref 35 (Lou et al., 2012)): 20 µg/mL (≈ 122 µM); IC50 value (293T cells): indeterminate; MIC (Streptococcus pneumoniae): 10 µg/mL (≈ 60.9 µM); MIC (S. aureus; ref 35 (Lou et al., 2012)): 80 µg/mL (≈ 487 µM); MIC (Bacillus subtilis; ref 35 (Lou et al., 2012)): 20 µg/mL (≈ 122 µM); MIC (Shigella dysenteriae): 20 µg/mL (≈ 122 µM); MIC (Salmonella typhimurium): 20 µg/mL (≈ 122 µM)
COc1ccc(C=CC(=O)O)cc1 [p-MCA, p-methoxycinnamic acid]	1.34	1.15	no statistically significant differences			S (synergistic effect)	0.09	S (synergistic effect)	0.09	S (synergistic effect)	0.27	S (synergistic effect)	0.14	S (synergistic effect)	0.27	MIC (E. coli): 30 µg/mL (≈ 168 µM); MIC (E. coli; ref 29 (Nakazono et al., 2006)): 50 µg/mL (≈ 281 µM); MIC (Salmonella enteritidis): 60 µg/mL (≈ 337 µM); MIC (S. aureus): 40 µg/mL (≈ 224 µM); MIC (S. aureus; ref 29 (Nakazono et al., 2006)): 60 µg/mL (≈ 337 µM); MIC (Bacillus subtilis): 40 µg/mL (≈ 224 µM); MIC (Micrococcus luteus): 80 µg/mL (≈ 449 µM)
